Test results from patent US11834401B2, “Treating and preventing diseases by modulating cell mechanics” (THE JOHNS HOPKINS UNIVERSITY, priority 2013, dated 2023).

Experiments:
[1] = biological target: T1, myosin II (Dictyostelium discoideum, UniProt P08799, S456L); test: Myosin II cortical localization by SIM, TIRF and confocal imaging; format: cell-based; settings: myoII null cells, time course beyond one hour
T1 construct: expressed in transfected cells; host or cells: Dictyostelium discoideum myoII null cells rescued with GFP-myosin II
Experimental: (§1) Micropipette aspiration was used for cortical tension and creep response measurements. Confocal imaging was performed on a Zeiss 510 Meta with a 63× (numerical aperture [NA] 1.4) objective (Carl Zeiss, Jena, Germany). Epifluorescence and TIRF imaging was performed in a 22° C. temperature controlled room with an Olympus IX81 microscope using a 40× (NA 1.3) or 60× (NA 1.49) objective and a 1.4× optovar (Olympus, Center Valley, Pa.), as previously described. Image analysis was performed with ImageJ (rsb.info.nih.gov/ij).
(§2) Imaging conditions during primary screen are described above. All other image analysis was performed as previously described (Kee Y S, et al., 2012). Cells were transferred from Petri dishes (with 0.1% DMSO incubation in growth media of 4 hrs) to imaging chambers and allowed to adhere for 20 min in growth media with 0.1% DMSO. After the cells adhered, the growth media was replaced with 2-(N-morpholino)ethanesulfonic acid (MES) starvation buffer (50 mM MES, pH 6.8, 2 mM MgCl2, 0.2 mM CaCl2) with 0.1% DMS. Confocal imaging was performed on aZeiss 510 Meta with a 63× (numerical aperture [NA] 1.4) objective (Carl Zeiss, Jena, Germany). Epifluorescence and TIR imaging was performed in a 22° C. temperature controlled room with an Olympus IX81 microscope using a 40× (NA 1.3) or 60× (NA […]) objective and a 1.4× optovar (Olympus, Center Valley, Pa.), as previously described. Image analysis was performed with ImageJ (rsb.info.nih.gov/ij). Many data sets were independently analyzed by multiple investigators.

[2] = biological target: T2, myosin II (Dictyostelium discoideum, UniProt P08799, T1823A/T1833A/T2029A); test: as above; format: cell-based; settings: myoII null cells, 500 nM, 10 minutes post-treatment
T2 construct: expressed in transfected cells; host or cells: Dictyostelium discoideum myoII null cells rescued with GFP-myosin II
Experimental: as §1, §2

[3] = biological target: T3, myosin II (Dictyostelium discoideum, UniProt P08799, T1823D/T1833D/T2029D); test: as above; format: cell-based; settings: myoII null cells, 500 nM, 10 minutes post-treatment
T3 construct: expressed in transfected cells; host or cells: Dictyostelium discoideum myoII null cells rescued with GFP-myosin II
Experimental: as §1, §2

[4] = system: myosin II; test: as above; format: cell-based, Dictyostelium discoideum; settings: myoII null cells
Experimental: as §1, §2

[5] = system: ASPC-1 cells; test: Micropipette aspiration creep test; format: cell-based, human; settings: 500 nM, 1 hr, 0.25 nN/μm^2
Experimental: (§3) The instrumental and experimental setups have been previously described (Effler J C, et al., 2006; Kee Y-S, et al., 2013). Micropipette aspiration assays were all carried out in growth media with 0.1% DMSO. For cortical tension measurements of Dictyostelium cells, pressure was applied to the cell cortex with a micropipette (2-3 m radius, Rp) to the equilibrium pressure (ΔP) where the length of the cell inside the pipette (Lp) was equal to Rp. The effective cortical tension (Teff) was calculated by applying the Young-Laplace equation: ΔP=2Teff(1/Rp-1/Rc), where Rc is the radius of the cell and ΔP is the equilibrium pressure when Lp=Rp (Derganc J, et al., 2000; Octtaviani E, et al., 2006). For creep tests on mammalian strains, a constant aspiration stress was applied over 60 s. The micropipette radius was 3.5-4.5 m. For quantification, the Lp/Rp ratio values was measured every two seconds and plotted as a function of time. A10.7 and HEK293 cells could only be aspirated at a low pressure range (0.15 nN/μm^2), while HPDE, ASPC-1, and HL-60 cells could be aspirated at higher pressure ranges (0.25 nN/μm^2) because they were stiffer.

[6] = system: HEK293 cells; test: Micropipette aspiration creep test; format: cell-based, human; settings: 500 nM, 1 hr, 0.15 nN/μm^2
Experimental: as §3

[7] = system: Panc10.05 cells; test: Micropipette aspiration effective cortical tension (Teff), knockdown lines; format: cell-based, human
Experimental: The instrumental and experimental setups have been described previously. MPA assays and RT-DC measurements were all carried out in growth media for cortical tension measurements or Leibovitz L-15 media (Gibco) when fluorescence was quantified.
Pressure was applied to the cell cortex with a micropipette (6- to 8-μm radius; Rp) to the equilibrium pressure (ΔP), where the length of the cell inside the pipette (Lp) was equal to Rp. The effective cortical tension (Teff) was calculated by applying the Young-Laplace equation: ΔP=2Teff (1/Rp−1/Rc), where Rc is the radius of the cell and ΔP is the equilibrium pressure when Lp=Rp. Images were collected with an Olympus IX81 microscope equipped with MetaMorph software and analyzed using ImageJ (rsb.info.nih.gov/ij).

[8] = system: myosin IIA (phosphor-Ser1943); test: Western blot of phospho-myosin IIA; format: cell-based, human; settings: HPDE or ASPC-1 cells
Experimental: Pellet was resuspended in 100 μl lysis buffer minus Triton X-100, and both pellet and supernatant fractions were heated to 100° C. for 3 min with RNaseA. Samples were incubated at 37° C. for 30 min and then heated to 100° C. in sample buffer for 5 min. Samples were loaded on a 15% SDS-polyacrylamide gel. Western blot analyses of phospho-myosin IIA was performed on whole cell lysates of cells treated as above in lysate buffer with 10 mM NaF.

[9] = system: ASPC-1 cells; test: Viability assay; format: cell-based, human; settings: 50 nM, 500 nM
[10] = system: ASPC-1 cells; test: Transwell migration assay; format: cell-based, human; settings: 24 hr transwell
Experimental: Cells were starved with serum-reduced media for 24 hr, harvested from flasks with trypsin/EDTA, washed with media containing 1% FBS, and resuspended at cell density of 2-5×10^5 cells/ml. 0.2 ml of cells were placed in the upper chamber of transwell (BD Biosciences), with 20% FBS-containing media in the lower well and incubated at 37° C. for 24 hr. Both sides of the transwell contained 4-HAP at the appropriate concentration, with final DMSO concentration at 0.0025%. The transwells were MeOH-fixed and stained with 0.5% crystal violet for 20 min, followed by counting from six random microscopic fields.

[11] = system: ASPC-1 cells; test: Matrigel invasion assay; format: cell-based, human; settings: transwells with 2 mg/ml Matrigel
Experimental: Cells were treated as in migration assay, but plated in transwells containing 2 mg/ml Matrigel (BD Biosciences).

[12] = system: NMIIA, NMIIC, ACTN4; test: Western analysis of mechanobiome protein expression; format: cell-based, human; settings: Panc10.05 cells, overnight treatment

T3 sequence (P08799 whole entry T1823D/T1833D/T2029D): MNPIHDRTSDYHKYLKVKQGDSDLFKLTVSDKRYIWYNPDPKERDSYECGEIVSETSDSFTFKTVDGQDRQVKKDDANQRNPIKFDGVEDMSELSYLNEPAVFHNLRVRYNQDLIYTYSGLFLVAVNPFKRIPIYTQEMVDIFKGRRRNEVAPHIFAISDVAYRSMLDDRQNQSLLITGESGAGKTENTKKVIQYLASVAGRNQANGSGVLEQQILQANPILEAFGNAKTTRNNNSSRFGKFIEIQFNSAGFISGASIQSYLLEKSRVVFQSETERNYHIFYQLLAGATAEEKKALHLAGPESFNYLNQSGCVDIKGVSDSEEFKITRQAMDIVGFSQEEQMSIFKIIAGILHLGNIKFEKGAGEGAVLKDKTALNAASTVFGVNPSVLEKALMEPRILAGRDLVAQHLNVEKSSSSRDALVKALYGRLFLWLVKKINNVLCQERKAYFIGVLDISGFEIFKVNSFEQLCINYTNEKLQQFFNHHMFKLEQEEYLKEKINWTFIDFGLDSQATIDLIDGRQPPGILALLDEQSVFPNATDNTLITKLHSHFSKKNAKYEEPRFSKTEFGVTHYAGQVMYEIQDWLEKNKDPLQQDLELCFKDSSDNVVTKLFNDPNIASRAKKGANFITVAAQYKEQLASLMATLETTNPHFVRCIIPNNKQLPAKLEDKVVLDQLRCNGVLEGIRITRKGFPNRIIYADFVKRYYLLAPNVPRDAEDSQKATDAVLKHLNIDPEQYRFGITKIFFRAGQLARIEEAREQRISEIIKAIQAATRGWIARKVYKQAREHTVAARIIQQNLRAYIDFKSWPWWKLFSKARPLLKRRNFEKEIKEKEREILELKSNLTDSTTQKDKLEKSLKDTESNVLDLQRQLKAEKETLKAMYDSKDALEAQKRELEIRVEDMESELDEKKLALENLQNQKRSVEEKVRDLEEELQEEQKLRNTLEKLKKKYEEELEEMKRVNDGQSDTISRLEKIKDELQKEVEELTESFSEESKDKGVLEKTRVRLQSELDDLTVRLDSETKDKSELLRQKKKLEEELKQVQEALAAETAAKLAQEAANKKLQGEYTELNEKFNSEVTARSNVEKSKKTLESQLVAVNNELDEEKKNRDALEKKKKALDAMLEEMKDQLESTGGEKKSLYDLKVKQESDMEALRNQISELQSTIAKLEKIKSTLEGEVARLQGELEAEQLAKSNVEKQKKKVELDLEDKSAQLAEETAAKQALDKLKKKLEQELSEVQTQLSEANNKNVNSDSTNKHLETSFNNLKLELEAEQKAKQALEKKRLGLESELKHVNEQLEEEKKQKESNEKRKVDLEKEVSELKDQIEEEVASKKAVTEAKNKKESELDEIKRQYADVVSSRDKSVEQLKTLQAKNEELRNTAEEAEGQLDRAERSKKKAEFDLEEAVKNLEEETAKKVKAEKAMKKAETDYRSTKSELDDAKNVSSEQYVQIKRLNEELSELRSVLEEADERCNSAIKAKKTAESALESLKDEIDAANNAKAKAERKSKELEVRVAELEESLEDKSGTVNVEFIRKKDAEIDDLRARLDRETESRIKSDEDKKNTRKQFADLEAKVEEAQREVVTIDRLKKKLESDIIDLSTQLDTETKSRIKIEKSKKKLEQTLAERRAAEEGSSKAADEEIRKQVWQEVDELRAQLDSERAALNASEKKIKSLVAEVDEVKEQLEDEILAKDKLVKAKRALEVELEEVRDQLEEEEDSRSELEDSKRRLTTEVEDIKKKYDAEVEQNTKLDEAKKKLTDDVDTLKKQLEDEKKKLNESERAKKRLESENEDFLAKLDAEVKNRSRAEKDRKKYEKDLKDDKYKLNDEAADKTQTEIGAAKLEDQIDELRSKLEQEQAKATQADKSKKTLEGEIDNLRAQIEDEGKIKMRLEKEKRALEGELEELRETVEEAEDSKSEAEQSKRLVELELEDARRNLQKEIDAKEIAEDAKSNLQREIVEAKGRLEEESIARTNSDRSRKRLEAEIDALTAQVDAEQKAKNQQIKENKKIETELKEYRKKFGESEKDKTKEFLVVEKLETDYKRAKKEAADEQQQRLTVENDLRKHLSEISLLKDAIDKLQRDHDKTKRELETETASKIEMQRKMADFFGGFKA
T1 sequence (P08799 whole entry S456L): as the sequence (P08799 whole entry T1823D/T1833D/T2029D) above, with S456L, D1823T, D1833T, D2029T counted along it
T2 sequence (P08799 whole entry T1823A/T1833A/T2029A): as the sequence (P08799 whole entry T1823D/T1833D/T2029D) above, with D1823A, D1833A, D2029A counted along it

With `CC(=O)c1ccc(O)cc1` [4-HAP, 4-hydroxyacetophenone] the “myosin accumulation, GFP-S456L myosin” value [1] was “did not show a response to 4-HAP”, the “filament formation, GFP-3XAla myosin” value [2] was “increasing in filament length and intensity” and the “filament formation, GFP-3XAsp myosin” value [3] was “generating more short filaments”. The “myosin accumulation, GFP-S1 motor domain” value [4] was “did not show an accumulation response”, the “deformability in creep test” value [5] was “stiffens ASPC-1 cells, shifting them towards HPDE-like mechanics” and the “deformability in creep test” value [6] was “stiffens the soft HEK293 cells”. For the same compound, the effective cortical tension ([7]; myosin IIA knockdown cells) was “increases the cortical tension in myosin IIA knockdown cells”, the effective cortical tension ([7]; myosin IIC knockdown cells) was “unchanged by 4-HAP challenge” and the effective cortical tension ([7]; sh-control cells, 500-nM) was “increases the cortical tension of sh-control cells”. The “myosin IIA phosphorylation (phosphor-Ser1943)” value [8] was “little effect on myosin IIA phosphorylation”, the “viability vs DMSO control” value [9] was “no difference over DMSO control” and the in vitro migration [10] was “dose-dependent decrease”. The in vitro invasion [11] was “dose-dependent decrease” and the “expression of NMIIA, NMIIC, or ACTN4” value [12] was “does not affect the expression”.
